Where two headings read alike, the source gives them in different places.
Key:
[1] = molecular target: T1, mGPDH (Rattus norvegicus, UniProt P35571); experiment: Superoxide/H2O2 production by mGPDH in isolated skeletal muscle mitochondria (Amplex UltraRed); format: biochemical
T1 construct: Activity of mGPDH in frozen-thawed skeletal muscle mitochondria was measured; from tissue; host or cells: skeletal muscle mitochondria
T1 sequence (P35571 43-727): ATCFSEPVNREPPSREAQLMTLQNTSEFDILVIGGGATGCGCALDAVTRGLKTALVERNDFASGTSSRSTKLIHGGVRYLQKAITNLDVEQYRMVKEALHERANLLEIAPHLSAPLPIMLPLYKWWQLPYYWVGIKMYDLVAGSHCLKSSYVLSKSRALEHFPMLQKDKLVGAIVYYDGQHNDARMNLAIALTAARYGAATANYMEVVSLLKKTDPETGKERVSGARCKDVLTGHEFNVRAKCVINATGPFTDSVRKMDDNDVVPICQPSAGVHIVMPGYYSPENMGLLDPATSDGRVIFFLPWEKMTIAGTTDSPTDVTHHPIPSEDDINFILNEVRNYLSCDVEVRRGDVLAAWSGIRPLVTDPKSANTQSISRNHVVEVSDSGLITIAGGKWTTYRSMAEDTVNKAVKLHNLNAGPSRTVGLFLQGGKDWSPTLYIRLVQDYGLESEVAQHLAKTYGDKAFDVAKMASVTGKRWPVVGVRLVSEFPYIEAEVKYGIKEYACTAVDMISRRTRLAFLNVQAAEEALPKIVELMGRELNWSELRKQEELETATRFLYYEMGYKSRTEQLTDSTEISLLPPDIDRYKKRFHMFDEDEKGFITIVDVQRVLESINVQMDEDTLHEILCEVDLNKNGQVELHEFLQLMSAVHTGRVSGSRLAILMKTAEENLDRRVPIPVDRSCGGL

[2] = test system: ubiquinone-binding site of complex I (site IQ); experiment: Site-specific H2O2 production from site IQ in skeletal muscle mitochondria; format: biochemical, rat;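 further: H2O2 from superoxide detected by Amplex UltraRed fluorescence with added superoxide dismutase and horseradish peroxidase, endpoint read 30–40 min after substrate addition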
[3] = test system: skeletal muscle mitochondria; experiment: Mitochondrial membrane potential (ΔΨm, TMRM) powered by glycerol phosphate; format: biochemical, rat
Method: Mitochondrial membrane potential (ΔΨm) was estimated fluorimetrically as described previously [33] on the Varian fluorimeter, except the potentiometric dye TMRM was used in quench-mode in place of safranine O [34]. […] The effect of putative small-molecule inhibitors was normalized as the % change in fluorescence between vehicle treatment and complete depolarization by the uncoupler carbonyl cyanide-4-(trifluoromethoxy)phenylhydrazone (FCCP, 2 µM) added at the end of each run. When indicated, the K^+/H^+ exchanger nigericin (80 ng ⋅ ml^−1) was added to collapse the pH gradient across the mitochondrial inner membrane (ΔpH) and maximize ΔΨm.
Additionally, four microplate assays for ΔΨm were run in parallel to the H2O2 assays. These assays were as described under “Measurement of mitochondrial H2O2 production and membrane potential” except that each substrate condition was assayed in a separate microplate. […] Plates were incubated in the dark at room temperature for 30–40 min (H2O2) or 10–15 min (ΔΨm) after the addition of substrate, and endpoint fluorescence was measured on the Victor plate reader. […] Endpoints for the ΔΨm assays were determined in pilot experiments as the times for TMRM accumulation to reach a steady state. At room temperature, this was typically ∼ 5 min and remained stable for at least 30 min. Endpoint fluorescence values were normalized as described in the previous section with wells containing FCCP serving as positive controls for the ΔΨm assays.

[4] = test system: skeletal muscle mitochondria; experiment: Mitochondrial membrane potential (ΔΨm, TMRM) powered by succinate; format: biochemical, rat
Method: Mitochondrial membrane potential (ΔΨm) was estimated fluorimetrically as described previously on the Varian fluorimeter, except the potentiometric dye TMRM was used in quench-mode in place of safranine O [34]. […] The effect of putative small-molecule inhibitors was normalized as the % change in fluorescence between vehicle treatment and complete depolarization by the uncoupler carbonyl cyanide-4-(trifluoromethoxy)phenylhydrazone (FCCP, 2 µM) added at the end of each run. When indicated, the K^+/H^+ exchanger nigericin (80 ng ⋅ ml^−1) was added to collapse the pH gradient across the mitochondrial inner membrane (ΔpH) and maximize ΔΨm.
The assay buffer for both H2O2 and ΔΨm measurements was 120 mM KCl, 5 mM HEPES, 1 mM EGTA, 0.3% (w/v) BSA without or with 250 nM free calcium at pH 7.0. All assays were performed with stirring at 37°C.
Structure/activity analysis was performed on 18 structural analogs of two structurally-related hits from the primary screen (iGP-1 and iGP-2). These 20 compounds were tested in duplicate at 0.08–80 µM (0.1% DMSO final) in microplate format for effects on site-specific H2O2 production as described above. Additionally, four microplate assays for ΔΨm were run in parallel to the H2O2 assays. These assays were as described under “Measurement of mitochondrial H2O2 production and membrane potential” except that each substrate condition was assayed in a separate microplate. […] Plates were incubated in the dark at room temperature for 30–40 min (H2O2) or 10–15 min (ΔΨm) after the addition of substrate, and endpoint fluorescence was measured on the Victor plate reader. Endpoints were chosen for the H2O2 assays to provide good signal-to-noise ratios and linear rates of change without the indicator dye limiting the reaction. Endpoints for the ΔΨm assays were determined in pilot experiments as the times for TMRM accumulation to reach a steady state. […] Endpoint fluorescence values were normalized as described in the previous section with wells containing FCCP serving as positive controls for the ΔΨm assays.

With `O=C(O)CCC(=O)Nc1ccc(-c2nc3ccccc3[nH]2)cc1` [iGP-1] the IC50 ([1]; Fig. 4 structure/activity microplate assay, 0.08–80 µM, estimated, means of two replicates, read-out: mGPDH H2O2 production IC50) was 8 µM, the IC50 ([1]; Fig. 9B, read-out: mGPDH H2O2 Production IC50) was 13.6 ± 1.3 µM and the “mGPDH (% change from DMSO)” value ([1]; primary screen, ∼2.5 µM, average of duplicates, 16.7 mM glycerol phosphate, no added calcium) was -21.6%. For the same compound, the inhibition at 80 µM ([1]; read-out: mGPDH H2O2 production (% change at 80 μM)) was 55%, the IC50 ([1]; titration up to 80 µM (Fig. 6B, Fig. 7B), read-out: half-maximal effect on H2O2 production by mGPDH) was about 8 µM and the “IQ H2O2 production with 5 mM Suc (% change at 80 μM)” value ([2]; 80 μM, 5 mM succinate) was -9%. The “concentration above which H2O2 production by site IQ starts to be inhibited” value ([2]; Fig. 6B) was “above 10 µM”, the “IQ (% change from DMSO)” value ([2]; primary screen, ∼2.5 µM, average of duplicates, 5 mM succinate) was 1.0% and the “ΔΨm with GP + Nig (% change at 80 μM)” value ([3]; 80 μM, 16.7 mM glycerol phosphate, 4 µM rotenone, nigericin) was -20%. For the same compound, the “effect on ΔΨm powered by glycerol phosphate” value ([3]; 8, 25, and 80 µM) was “significantly decreased”, the “effect on ΔΨm powered by 0.5 mM succinate” value ([4]; 80 µM, 0.5 mM succinate) was “significantly decreased” and the “effect on ΔΨm powered by 5 mM succinate” value ([4]; 5 mM succinate) was “no effect”.
